The IC50 is the midpoint of a concentration-inhibition curve.

From patent publication US9663516B2, “Bicyclic-pyrimidinedione compounds” (MyoKardia, Inc., priority 2014, dated 2017) come the findings set out here.

SMILES strings stand for the structures. Where only a bound is given, the exact number is not on record here.

For this experiment, the target named is bovine cardiac myosin (Bos taurus, UniProt Q9BE39). Description: Myosin inhibition assay (PK/LDH-coupled ATPase, bovine cardiac myofibrils). The conditions noted are these: calcium concentration giving 50% activation, pH 6.8, read-out: bcMF pCa_6 IC50. Type of experiment: biochemical. On the procedure: Small molecule agents were assessed for their ability to inhibit the enzymatic activity of bovine cardiac myosin using a biochemical assay that couples the release of ADP (adenosine diphosphate) from cardiac myosin to an enzymatic coupling system consisting of pyruvate kinase and lactate dehydrogenase (PK/LDH) and monitoring the absorbance decrease of NADH (at 340 nm) as a function of time. PK converts ADP to ATP (adenosine triphosphate) by converting PEP (phosphoenolpyruvate) to pyruvate. Pyruvate is then converted to lactate by LDH by converting NADH (nicotinamide adenine dinucleotide) to NAD (oxidized nicotinamide adenine dinucleotide). […] Prior to testing small molecule agents, the bovine myofibrils were assessed for their calcium responsiveness and the calcium concentration that achieves a 50% activation of the myofibril system was chosen as the final condition for assessing the inhibitory activity of the small molecule agents. All enzymatic activity was measured in a buffered solution containing 12 mM PIPES (piperazine-N,N′-bis(2-ethanesulfonic acid), 2 mM magnesium chloride at pH 6.8 (PM12 buffer). Final assay conditions were 1 mg/mL of bovine cardiac myofibrils, 0.4 mM PK/LDH, 50 uM ATP, 0.1 mg/mL BSA (bovine serum albumin), 10 ppm antifoam, 2 mM BME, 0.5 mM NADH, 1.5 mM PEP at the desired free calcium concentration required to achieve 50% activation of the myofibrils.
Sequence of bovine cardiac myosin (Q9BE39 whole entry): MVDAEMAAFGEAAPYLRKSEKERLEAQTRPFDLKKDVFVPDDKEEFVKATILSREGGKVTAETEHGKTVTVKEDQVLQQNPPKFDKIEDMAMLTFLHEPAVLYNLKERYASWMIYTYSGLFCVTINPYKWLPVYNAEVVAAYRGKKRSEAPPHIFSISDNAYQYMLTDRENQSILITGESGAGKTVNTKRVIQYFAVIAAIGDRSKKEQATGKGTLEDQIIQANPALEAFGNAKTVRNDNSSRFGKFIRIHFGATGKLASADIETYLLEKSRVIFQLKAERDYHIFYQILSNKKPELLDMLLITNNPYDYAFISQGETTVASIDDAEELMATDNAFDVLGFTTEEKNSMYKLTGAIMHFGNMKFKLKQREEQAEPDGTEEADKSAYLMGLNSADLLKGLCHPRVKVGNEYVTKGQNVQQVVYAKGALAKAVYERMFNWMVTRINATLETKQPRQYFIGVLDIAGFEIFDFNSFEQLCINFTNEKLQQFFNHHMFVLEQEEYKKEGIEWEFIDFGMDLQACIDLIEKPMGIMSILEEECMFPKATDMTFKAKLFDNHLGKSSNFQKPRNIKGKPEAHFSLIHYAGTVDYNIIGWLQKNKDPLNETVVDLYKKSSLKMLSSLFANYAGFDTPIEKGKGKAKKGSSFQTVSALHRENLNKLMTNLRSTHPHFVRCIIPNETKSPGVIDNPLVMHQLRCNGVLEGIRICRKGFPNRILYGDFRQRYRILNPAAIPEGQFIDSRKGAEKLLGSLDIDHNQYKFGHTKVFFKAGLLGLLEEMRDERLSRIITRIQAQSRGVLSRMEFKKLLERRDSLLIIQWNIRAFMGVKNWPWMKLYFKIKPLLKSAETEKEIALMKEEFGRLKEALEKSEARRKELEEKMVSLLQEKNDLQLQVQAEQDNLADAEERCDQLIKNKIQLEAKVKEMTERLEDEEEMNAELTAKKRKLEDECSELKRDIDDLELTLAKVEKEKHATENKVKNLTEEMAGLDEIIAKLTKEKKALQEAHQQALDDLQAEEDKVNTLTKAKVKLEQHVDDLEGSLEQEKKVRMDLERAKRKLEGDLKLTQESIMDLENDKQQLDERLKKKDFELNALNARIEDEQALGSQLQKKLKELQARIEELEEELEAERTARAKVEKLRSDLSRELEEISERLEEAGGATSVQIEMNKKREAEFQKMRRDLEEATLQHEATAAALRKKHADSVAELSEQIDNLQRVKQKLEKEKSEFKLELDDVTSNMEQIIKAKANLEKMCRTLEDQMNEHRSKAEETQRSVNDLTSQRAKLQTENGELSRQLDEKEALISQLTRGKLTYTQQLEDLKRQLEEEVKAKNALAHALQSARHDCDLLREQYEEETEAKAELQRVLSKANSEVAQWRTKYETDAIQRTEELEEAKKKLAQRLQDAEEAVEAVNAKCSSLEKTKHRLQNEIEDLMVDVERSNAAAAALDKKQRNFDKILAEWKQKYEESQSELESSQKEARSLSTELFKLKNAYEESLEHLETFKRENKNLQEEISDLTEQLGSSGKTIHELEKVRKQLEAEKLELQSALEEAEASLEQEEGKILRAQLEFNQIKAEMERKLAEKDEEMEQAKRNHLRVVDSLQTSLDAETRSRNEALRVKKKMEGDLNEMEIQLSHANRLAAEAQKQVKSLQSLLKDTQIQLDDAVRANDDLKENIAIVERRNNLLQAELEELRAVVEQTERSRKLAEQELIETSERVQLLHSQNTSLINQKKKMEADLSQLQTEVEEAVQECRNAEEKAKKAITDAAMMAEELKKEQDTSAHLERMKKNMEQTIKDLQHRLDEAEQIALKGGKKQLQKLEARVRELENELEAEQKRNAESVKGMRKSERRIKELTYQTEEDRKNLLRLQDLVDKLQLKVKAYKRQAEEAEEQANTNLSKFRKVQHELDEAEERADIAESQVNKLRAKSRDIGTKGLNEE
Sequence of bovine cardiac myosin (P85100 whole entry partner): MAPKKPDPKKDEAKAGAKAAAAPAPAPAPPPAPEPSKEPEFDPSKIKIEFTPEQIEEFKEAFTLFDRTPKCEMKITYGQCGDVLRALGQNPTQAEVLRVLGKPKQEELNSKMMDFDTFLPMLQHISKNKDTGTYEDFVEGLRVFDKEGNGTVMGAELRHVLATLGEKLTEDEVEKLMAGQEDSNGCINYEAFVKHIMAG
Sequence of bovine cardiac myosin (Q3SZE5 whole entry partner): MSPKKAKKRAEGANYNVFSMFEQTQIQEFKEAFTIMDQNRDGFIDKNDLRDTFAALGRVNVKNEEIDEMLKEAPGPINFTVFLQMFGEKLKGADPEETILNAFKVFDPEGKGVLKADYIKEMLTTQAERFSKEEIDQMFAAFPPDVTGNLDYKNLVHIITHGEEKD
A dilution series of compound was created in DMSO such that the final desired concentration of compound would be achieved in a volume of 30 μL with a fixed DMSO concentration of 3.3% (v/v). Typically 1 μL of the dilution series were added to 384 well plate to achieve an 10 point dose response. Following the addition of 14 μL of a solution containing bovine cardiac myofibrils, PK/LDH and a solution of calcium (that achieved 50% activation), the enzymatic reaction was started with the addition of 15 μL of a solution containing ATP, PEP and NADH. The reaction progress was followed in a PerkinElmer Envision plate reader at ambient temperature using clear bottom plates. The plate reader was configured to read absorbance at 340 nm in kinetics mode for 15 minutes. Data were recorded as the slope of the absorbance response to time. The slopes of the absorbance response as a function of time were normalized to slopes on the plate containing DMSO. This normalized rate was then plotted as a function of small molecule concentration and the data was fitted to a four-parameter fit using EXCEL XLfit. The IC50 is the concentration at which fifty percent of the total response is inhibited.
As to `CC(C)n1c(=O)[nH]c2c(c1=O)C[C@H](c1ccccc1)N2` (single isomer, unassigned) [Compound 7], the IC50 was in the range of 1 to 15 µM. Consider `CC(C)n1c(=O)[nH]c2c(c1=O)C[C@@H](c1ccccc1)N2` (single isomer, unassigned) [Compound 8], for which the IC50 is above 15 µM. For `O=c1[nH]c2c(c(=O)n1-c1ccccc1)CC[C@H](c1ccc(F)cc1)N2` [Compound 3, (R)-7-(4-Fluorophenyl)-3-phenyl-5,6,7,8-tetrahydropyrido[2,3-d]pyrimidine-2,4(1H,3H)-dione], the IC50 was in the range of 1 to 15 µM. The figure for `COc1cccc([C@H]2CCc3c([nH]c(=O)n(C(C)C)c3=O)N2)c1` [Compound 5, (R)-3-Isopropyl-7-(3-methoxyphenyl)-5,6,7,8-tetrahydropyrido[2,3-d]pyrimidine-2,4(1H,3H)-dione] is 1 to 15 µM; for `CC(C)n1c(=O)[nH]c2c(c1=O)CCCN2` [Compound 10, 3-Isopropyl-5,6,7,8-tetrahydropyrido[2,3-d]pyrimidine-2,4(1H,3H)-dione] it is above 15 µM; for `CCn1c(=O)[nH]c2c(c1=O)CC[C@H](c1cccc(Cl)c1)N2` [Compound 11, (R)-7-(3-Chlorophenyl)-3-ethyl-5,6,7,8-tetrahydropyrido[2,3-d]pyrimidine-2,4(1H,3H)-dione] it is 1 to 15 µM. For `CC(C)n1c(=O)[nH]c2c(c1=O)CC[C@H](c1cccc(Cl)c1)N2` [Compound 12], the IC50 was below 1 µM. Then `CCn1c(=O)[nH]c2c(c1=O)CC[C@H](c1ccc(F)c(Cl)c1)N2` [Compound 13], with 1 to 15 µM; and `CCn1c(=O)[nH]c2c(c1=O)CC[C@H](c1ccc(Cl)cc1)N2` [Compound 15], with 1 to 15 µM; and `CCn1c(=O)[nH]c2c(c1=O)CC[C@H](c1ccc(F)cc1F)N2` [Compound 16], with 1 to 15 µM.

Take `CC(C)n1c(=O)[nH]c2c(c1=O)CC[C@H](c1cc(F)ccc1F)N2` [Compound 17]: the IC50 was in the range of 1 to 15 µM. The figure for `O=c1[nH]c2c(c(=O)n1CC1CC1)CC[C@H](C1CCC(F)(F)CC1)N2` [Compound 19] is 1 to 15 µM; for `O=c1[nH]c2c(c(=O)n1C1CC1)CC[C@H](C1CCC(F)(F)CC1)N2` [Compound 21] it is 1 to 15 µM. As for `CC(C)Cn1c(=O)[nH]c2c(c1=O)CC[C@H](C1CCC(F)(F)CC1)N2` [Compound 23], the IC50 is below 1 µM. Take `O=c1[nH]c2c(c(=O)n1CC(F)F)CC[C@H](c1cccc(F)c1)N2` [Compound 24]: the IC50 is 1 to 15 µM. The figure for `CCn1c(=O)[nH]c2c(c1=O)CC[C@H](c1cc(F)cc(F)c1)N2` [Compound 25] is above 15 µM; for `O=c1[nH]c2c(c(=O)n1-c1ccccc1)CC[C@H](c1ccccc1)N2` [Compound 26] it is 1 to 15 µM. As to `CC(C)n1c(=O)[nH]c2c(c1=O)CC[C@H](C1CCOCC1)N2` [Compound 27], the IC50 lay in the range of 1 to 15 µM. `O=c1[nH]c2c(c(=O)n1C1CCC1)CC[C@H](c1ccccc1)N2` [Compound 28]: the IC50 lay within 1 to 15 µM. `CC[C@H](C)n1c(=O)[nH]c2c(c1=O)CC[C@H](C1CCC(F)(F)CC1)N2` [Compound 29]: the IC50 fell in the range of 1 to 15 µM. Regarding `CCCn1c(=O)[nH]c2c(c1=O)CC[C@H](C1CCC(F)(F)CC1)N2` [Compound 30], the IC50 is below 1 µM. Regarding `O=c1[nH]c2c(c(=O)n1C1CCOCC1)CC[C@H](c1ccccc1)N2` [Compound 32], the IC50 was in the range of 1 to 15 µM. Then `O=c1[nH]c2c(c(=O)n1-c1ccc(F)cn1)CC[C@H](C1CCC(F)(F)CC1)N2` [Compound 33], with below 1 µM. Then `O=c1[nH]c2c(c(=O)n1-c1cccc(F)n1)CC[C@H](c1ccccc1)N2` [Compound 34], with 1 to 15 µM; and `O=c1[nH]c2c(c(=O)n1-c1ccccn1)CC[C@H](c1ccccc1)N2` [Compound 35], with 1 to 15 µM. The figure for `Cn1ccc(-n2c(=O)[nH]c3c(c2=O)CC[C@H](C2CCC(F)(F)CC2)N3)n1` [Compound 36] is below 1 µM. Regarding `CC1(n2c(=O)[nH]c3c(c2=O)CC[C@H](C2CCC(F)(F)CC2)N3)CC1` [Compound 37], the half-maximal inhibitory concentration (IC50) was below 1 µM. On to `Cc1cccc(-n2c(=O)[nH]c3c(c2=O)CC[C@H](C2CCC(F)(F)CC2)N3)n1` [Compound 38], for which the IC50 is 1 to 15 µM. On to `COc1cccc(-n2c(=O)[nH]c3c(c2=O)CC[C@H](C2CCC(F)(F)CC2)N3)n1` [Compound 39], for which the IC50 was 1 to 15 µM. Then `O=c1[nH]c2c(c(=O)n1-c1cc(F)cc(F)c1)CC[C@H](C1CCCC1)N2` [Compound 40], with 1 to 15 µM. Turning to `CC(C)n1c(=O)[nH]c2c(c1=O)CC[C@H](C1CC(F)(F)C1)N2` [Compound 41], the IC50 lay within 1 to 15 µM. The figure for `O=c1[nH]c2c(c(=O)n1-c1cc(F)cc(F)c1)CC[C@H](C1CC(F)(F)C1)N2` [Compound 42] is above 15 µM; for `O=c1[nH]c2c(c(=O)n1-c1cccc(F)n1)CC[C@H](C1CCC(F)(F)CC1)N2` [Compound 43] it is below 1 µM; for `CC(C)[C@H]1CCc2c([nH]c(=O)n(-c3cc(F)cc(F)c3)c2=O)N1` [Compound 44] it is above 15 µM. With `O=c1[nH]c2c(c(=O)n1-c1ccccn1)CC[C@H](C1CCC(F)(F)CC1)N2` [Compound 45], the IC50 is below 1 µM. Then `O=c1[nH]c2c(c(=O)n1-c1ccccc1)CC[C@H](C1CCC(F)(F)CC1)N2` [Compound 47], with below 1 µM; and `O=c1[nH]c2c(c(=O)n1-c1ccccc1)CC[C@H](c1cccc(F)c1)N2` [Compound 49], with 1 to 15 µM. The figure for `CC(C)n1c(=O)[nH]c2c(c1=O)CC[C@H](CC1CC(F)(F)C1)N2` [Compound 50] is 1 to 15 µM; for `O=c1[nH]c2c(c(=O)n1-c1cc(F)cc(F)c1)CC[C@H](CC1CC(F)(F)C1)N2` [Compound 51] it is 1 to 15 µM. Consider `O=c1[nH]c2c(c(=O)n1-c1cc(F)cc(F)c1)CC[C@H](C1CCC(O)CC1)N2` (stereo partly drawn) [Compound 52], for which the 50% inhibitory concentration (IC50) fell in the range of 1 to 15 µM. Then `CC(C)n1c(=O)[nH]c2c(c1=O)CC[C@H](c1ccc(=O)[nH]c1)N2` [Compound 54], with above 15 µM; and `C/C=C(\C)n1c(=O)[nH]c2c(c1=O)CC[C@H](c1ccccc1)N2` [Compound 55], with 1 to 15 µM; and `CC1(n2c(=O)[nH]c3c(c2=O)CC[C@H](c2ccccc2)N3)CC1` [Compound 56], with 1 to 15 µM. For the molecule `CCn1c(=O)[nH]c2c(c1=O)CC[C@H](c1ccccc1Cl)N2` [Compound 57], the IC50 is 1 to 15 µM. Regarding `CCn1c(=O)[nH]c2c(c1=O)CC[C@H](c1cccc(F)c1F)N2` [Compound 58], the IC50 was above 15 µM.

On to `COc1ccc([C@H]2CCc3c([nH]c(=O)n(C(C)C)c3=O)N2)cn1` [Compound 59], for which the IC50 fell in the range of 1 to 15 µM. Then `O=c1[nH]c2c(c(=O)n1-c1cc(F)cc(F)c1)CC[C@H](c1cccc(F)c1)N2` [Compound 60], with 1 to 15 µM; and `CCn1c(=O)[nH]c2c(c1=O)CC[C@H](c1cccc(F)c1)N2` [Compound 61], with 1 to 15 µM; and `CC(C)n1c(=O)[nH]c2c(c1=O)CC[C@H](CC1CCOCC1)N2` [Compound 62], with above 15 µM. With `O=c1[nH]c2c(c(=O)n1CC(F)(F)F)CC[C@H](c1ccccc1)N2` [Compound 63], the 50% inhibitory concentration (IC50) was in the range of 1 to 15 µM. Then `CCn1c(=O)[nH]c2c(c1=O)CC[C@H](c1ccccc1)N2` [Compound 64], with above 15 µM; and `O=c1[nH]c2c(c(=O)n1-c1cc(F)cc(F)c1)CC[C@H](c1ccccc1)N2` [Compound 65], with 1 to 15 µM. Consider `CC(C)n1c(=O)[nH]c2c(c1=O)CC[C@H](Cc1ccccc1)N2` [Compound 66], for which the IC50 is below 1 µM. The figure for `O=c1[nH]c2c(c(=O)n1-c1cc(F)cc(F)c1)C[C@H](c1ccccc1)N2` [Compound 71] is above 15 µM; for `CC(C)n1c(=O)[nH]c2c(c1=O)CC[C@H](c1c(F)cccc1F)N2` [Compound 72] it is 1 to 15 µM; for `O=c1[nH]c2c(c(=O)n1CC(F)F)CC[C@H](c1ccc(F)cc1)N2` [Compound 73] it is 1 to 15 µM.

On to `CCn1c(=O)[nH]c2c(c1=O)CC[C@H](c1cc(F)ccc1F)N2` [Compound 74], for which the IC50 is 1 to 15 µM. Regarding `CCn1c(=O)[nH]c2c(c1=O)CC[C@H](c1c(F)cccc1F)N2` [Compound 75], the IC50 is above 15 µM. The figure for `CC(C)n1c(=O)[nH]c2c(c1=O)CC[C@H](c1cccc(F)c1F)N2` [Compound 76] is 1 to 15 µM; for `CC(C)n1c(=O)[nH]c2c(c1=O)CC[C@H](c1cc(F)cc(F)c1)N2` [Compound 77] it is 1 to 15 µM.
